Like-named read-outs stand apart in the source and are kept apart here.
Key:
WT MshC [1] = molecular target: T1, WT MshC (Mycolicibacterium smegmatis, UniProt A0QZY0); experiment: Coupled spectrophotometric enzyme assay; format: biochemical, Mycobacterium smegmatis; conditions: for Km: steady state, pH 7.8, 25 °C
T1 sequence (A0QZY0 1-412): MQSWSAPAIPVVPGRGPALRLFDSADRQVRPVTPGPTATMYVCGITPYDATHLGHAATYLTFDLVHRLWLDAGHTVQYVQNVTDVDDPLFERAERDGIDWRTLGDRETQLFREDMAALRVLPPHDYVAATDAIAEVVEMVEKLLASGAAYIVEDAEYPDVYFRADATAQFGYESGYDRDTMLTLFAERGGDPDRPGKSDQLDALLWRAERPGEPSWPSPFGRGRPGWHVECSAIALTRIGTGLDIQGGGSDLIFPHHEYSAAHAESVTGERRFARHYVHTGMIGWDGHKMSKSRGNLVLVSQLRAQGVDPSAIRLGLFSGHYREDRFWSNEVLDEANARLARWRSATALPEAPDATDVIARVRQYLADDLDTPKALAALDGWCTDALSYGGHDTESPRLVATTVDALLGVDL

MshC T83V mutant = MshC T83V mutant (Mycolicibacterium smegmatis, UniProt A0QZY0, T83V); format: biochemical, Mycobacterium smegmatis
WT MshC [2] = molecular target: T1, WT MshC; experiment: Pre-steady state kinetics of cysteine adenylation; format: biochemical, Mycobacterium smegmatis
MshC H55A mutant [3] = molecular target: T2, MshC H55A mutant (Mycolicibacterium smegmatis, UniProt A0QZY0, H55A); experiment: Pre-steady state kinetics of cysteine adenylation; format: biochemical, Mycobacterium smegmatis; conditions: read-out: Kd-ATP; first half reaction, fit to eq 9
MshC D251N mutant [4] = molecular target: T3, MshC D251N mutant (Mycolicibacterium smegmatis, UniProt A0QZY0, D251N); experiment: Pre-steady state kinetics of cysteine adenylation; format: biochemical, Mycobacterium smegmatis; conditions: read-out: Kd-ATP; first half reaction, fit to eq 9
MshC H55A mutant [5] = molecular target: T2, MshC H55A mutant; conditions: for Km: steady state, pH 7.8, 25 °C
MshC W227F mutant [6] = molecular target: T4, MshC W227F mutant (Mycolicibacterium smegmatis, UniProt A0QZY0, W227F)
MshC W227H mutant [7] = molecular target: T5, MshC W227H mutant (Mycolicibacterium smegmatis, UniProt A0QZY0, W227H)
MshC T46V mutant [8] = molecular target: T6, MshC T46V mutant (Mycolicibacterium smegmatis, UniProt A0QZY0, T46V)
MshC D251N mutant [9] = molecular target: T3, MshC D251N mutant
MshC D251A mutant [10] = molecular target: T7, MshC D251A mutant (Mycolicibacterium smegmatis, UniProt A0QZY0, D251A)
WT MshC [11] = molecular target: T1, WT MshC; conditions: up to 10 mM ATP; cited from earlier work
WT MshC [12] = molecular target: T1, WT MshC; experiment: Tryptophan fluorescence titration of inhibitor binding; parameters: species or system Mycobacterium smegmatis; conditions: fluorescence method, 0.1 μM protein, pH 7.8, 25 °C
MshC H55A mutant [13] = molecular target: T2, MshC H55A mutant; experiment: as above; parameters: species or system Mycobacterium smegmatis; conditions: fluorescence method, 0.1 μM protein, pH 7.8, 25 °C
MshC W227F mutant [14] = molecular target: T4, MshC W227F mutant; experiment: as above; parameters: species or system Mycobacterium smegmatis; conditions: fluorescence method, 0.1 μM protein, pH 7.8, 25 °C
MshC W227H mutant [15] = molecular target: T5, MshC W227H mutant; experiment: as above; parameters: species or system Mycobacterium smegmatis; conditions: fluorescence method, 0.1 μM protein, pH 7.8, 25 °C
MshC T46V mutant [16] = molecular target: T6, MshC T46V mutant; experiment: as above; parameters: species or system Mycobacterium smegmatis; conditions: fluorescence method, 0.1 μM protein, pH 7.8, 25 °C
MshC D251N mutant [17] = molecular target: T3, MshC D251N mutant; experiment: as above; parameters: species or system Mycobacterium smegmatis; conditions: fluorescence method, 0.1 μM protein, pH 7.8, 25 °C
MshC D251A mutant [18] = molecular target: T7, MshC D251A mutant; experiment: as above; parameters: species or system Mycobacterium smegmatis; conditions: fluorescence method, 0.1 μM protein, pH 7.8, 25 °C
MshC W227F mutant [19] = molecular target: T4, MshC W227F mutant; experiment: Pre-steady state kinetics of cysteine adenylation; format: biochemical, Mycobacterium smegmatis
MshC T46V mutant [20] = molecular target: T6, MshC T46V mutant; experiment: Pre-steady state kinetics of cysteine adenylation; format: biochemical, Mycobacterium smegmatis
MshC H55A = MshC H55A (Mycolicibacterium smegmatis, UniProt A0QZY0, H55A); experiment: Chemical rescue of enzyme activity by exogenous imidazole; format: biochemical, Mycobacterium smegmatis
WT MshC [21] = molecular target: T1, WT MshC; experiment: Effect of added imidazole on enzyme activity; format: biochemical, Mycobacterium smegmatis
[22] = read-out: Km-ATP, steady state, pH 7.8, 25 °C
[23] = read-out: Km-GlcN-Ins, at fixed saturating concentrations of ATP and cysteine
[24] = read-out: Km-cys, steady state, pH 7.8, 25 °C

SMILES: Nc1ncnc2c1ncn2[C@@H]1O[C@H](COP(=O)(O)OP(=O)(O)OP(=O)(O)O)[C@@H](O)[C@H]1O [ATP]
- Km (WT MshC [1]; read-out: Km-ATP): 1800 ± 100 µM
- Km (MshC T83V mutant; [22]): 320 ± 60 µM
- Kd (WT MshC [2]; read-out: Kd-ATP, first half reaction, fit to eq 9): 1700 ± 200 µM
- Kd (MshC H55A mutant [3]): 15000 ± 3000 µM
- Kd (MshC D251N mutant [4]): 10200 ± 2800 µM
- Km (MshC H55A mutant [5]; read-out: Km-ATP): 5200 ± 100 µM
- Km (MshC W227F mutant [6]; [22]): 200 ± 50 µM
- Km (MshC W227H mutant [7]; [22]): 120 ± 10 µM
- Km (MshC T46V mutant [8]; [22]): 1100 ± 30 µM
- Km (MshC D251N mutant [9]; [22]): 8900 ± 1600 µM
- substrate inhibition (MshC D251N mutant [9]; up to 20 mM ATP): not observed
- ATP concentration above which enzyme activity decreases (MshC D251A mutant [10]; 2 mM cysteine, 200 μM GlcN-Ins): ~ 1.1 mM
- Km (MshC D251A mutant [10]; [22]): 360 ± 11 µM
- substrate inhibition (WT MshC [11]): no substrate inhibition

SMILES: Nc1ncnc2c1ncn2[C@@H]1O[C@H](COS(=O)(=O)NC(=O)[C@@H](N)CS)[C@@H](O)[C@H]1O [CSA, 5'-O-[N-(L-cysteinyl)-sulfamonyl]adenosine, reference compound]
- Ki (WT MshC [1]): 0.304 ± 0.04 µM
- Kd (WT MshC [12]): 0.11 ± 0.01 µM
- Kd (MshC H55A mutant [13]): 0.35 ± 0.02 µM
- Kd (MshC W227F mutant [14]): 0.053 ± 0.01 µM
- Kd (MshC W227H mutant [15]): 0.045 ± 0.002 µM
- Kd (MshC T46V mutant [16]): 0.15 ± 0.01 µM
- Kd (MshC D251N mutant [17]): 0.18 ± 0.013 µM
- Kd (MshC D251A mutant [18]): 0.34 ± 0.01 µM
- Ki (MshC H55A mutant [5]): 0.89 ± 0.06 µM
- Ki (MshC W227F mutant [6]): 0.056 ± 0.008 µM
- Ki (MshC W227H mutant [7]): 0.03 ± 0.005 µM
- Ki (MshC T46V mutant [8]): 0.36 ± 0.047 µM
- Ki (MshC D251N mutant [9]): 0.52 ± 0.11 µM
- Ki (MshC D251A mutant [10]): 0.93 ± 0.17 µM

SMILES: N[C@H]1[C@@H](OC2[C@H](O)[C@H](O)C(O)[C@H](O)[C@H]2O)O[C@H](CO)[C@@H](O)[C@@H]1O (stereo partly shown) [GlcN-Ins, glucosamine-inositol]
- Km (WT MshC [1]; read-out: Km-GlcN-Ins): 160 ± 50 µM
- Km (MshC T83V mutant; [23]): 170 ± 50 µM
- Km (MshC W227F mutant [6]; [23]): 150 ± 60 µM
- Km (MshC W227H mutant [7]; [23]): 600 ± 10 µM
- Km (MshC T46V mutant [8]; [23]): 150 ± 80 µM
- Km (MshC D251N mutant [9]; [23]): 100 ± 60 µM
- Km (MshC D251A mutant [10]; [23]): 160 ± 10 µM

SMILES: N[C@@H](CS)C(=O)O [cys, L-cysteine]
- Km (MshC T83V mutant; [24]): 20 ± 1 µM
- Kd (WT MshC [2]): 160 ± 30 µM
- Kd (MshC W227F mutant [19]): 600 ± 100 µM
- Kd (MshC T46V mutant [20]): 800 ± 100 µM
- Km (MshC H55A mutant [5]; read-out: Km-cys): 1100 ± 200 µM
- Km (MshC W227F mutant [6]; [24]): 400 ± 100 µM
- Km (MshC W227H mutant [7]; [24]): 120 ± 40 µM
- Km (MshC T46V mutant [8]; [24]): 1900 ± 200 µM
- Km (MshC D251N mutant [9]; [24]): 480 ± 150 µM
- Km (MshC D251A mutant [10]; [24]): 170 ± 20 µM

SMILES: c1c[nH]cn1 [imidazole]
- increase of kcat value (MshC H55A; 100 mM added imidazole, pH 6.75): seven-fold increase
- change in enzyme activity upon addition of imidazole (MshC H55A; pH 7.8 and pH 9): no changes
- effect of added imidazole on enzyme activity (WT MshC [21]): No significant activating or inhibitory effect

SMILES: N[C@@H](CO)C(=O)O [serine]
- activity as substrate (WT MshC [1]; tested up to 5 mM): no activity

— publication PMC2748416 (Biochemistry, 2009)
